Results as given in patent US8785457B2 (Cellzome Limited, priority 2009, dated 2014).
Read-outs that look alike come from different tables or passages of the source.

What was measured:
[1] = system: S6RP serine-240/244 phosphorylation; assay: In vitro Phospho-S6 cellular assay (pS6RP S240/244) in HEK293T/17 cells; type: cell-based; settings: Homo sapiens, 2 hours, read-out: pS6 IC50
Description: Activation of mTOR signaling results in phosphorylation of several downstream targets. In cells, mTOR exists in two different protein complexes. The mTOR Complex-1 (mTORC1) phosphorylates and activates S6 Kinase 1 (S6K1) and S6 Kinase 2 (S6K2) (also known as p70S6K) which then phosphorylate S6 Ribosomal Protein (S6RP) (also known as RPS6)3. S6RP is phosphorylated on serine 235, serine 236, serine 240 and serine 244 by both pS6K1 and pS6K2. The mTOR Complex-2 (mTORC2) phosphorylates AKT on serine 473 which activates the AKT signaling pathway.
The assay measures a test compound's inhibition of S6RP serine-240/244 phosphorylation and inhibition of Akt serine-473 phosphorylation in human embryonic kidney derived HEK293T/17 cells (ATCC CRL-11268).
The HEK293T/17 cell line is maintained in DMEM media (Invitrogen catalogue number 41965-039) supplemented with 10% FCS at 37° C. in a 5% CO2 humidified incubator.
Cells are seeded in 96-well plates at 40,000 cells/well (pS6RP S240/244 assay) or 80,000 cells/well (pAkt S473 assay) in 90 μl growth media (DMEM, 2% FCS). Plates are incubated for 1 hour in a humidified incubator to allow the cells to adhere. Cells are treated with 8 concentrations of test compounds or DMSO alone for controls (final DMSO concentration 0.1%) and incubated at 37° C. for 2 hours. Then 20 μl of 5× concentrated lysis buffer (750 mM NaCl, 100 mM Tris pH7.4, 5 mM ADTA, 5 mM EGTA, 5% Triton X-100) is added, plates are sealed and incubated for 15 minutes at 4° C. with gentle shaking. After cell lysis, 25 μl cell lysate is transferred to a MesoScale plate coated with an antibody to pS6RP Ser240/244 (MesoScale Discovery K150DGD-3) or an antibody to pAkt Ser 473 (MesoScale Discovery K151DGD-3). Plates have been blocked before by incubation with 150 μl MesoScale Discovery Blocking Solution-A for 1 hour at room temperature followed by washing with 150 μl 1× Tris wash buffer per well. After the transfer of the cell lysate to the MSD plate, the pS6RP (or pAkt) protein is captured on the coated antibody by incubation at room temperature for 1 hour with gentle shaking. After the capture step the plate is washed three times with 150 μl of 1× Tris wash buffer per well. Then 25 μl detection antibody conjugated with a Sulfo-Tag is added and incubated for 1 hour at room temperature with gentle shaking. Subsequently the antibody solution is removed and the plate is washed 3 times with 150 μl×Tris wash buffer per well and 150 μl Read buffer is added. The plates are analysed on a MSD 2400 Plate Reader (MesoScale Discovery). Data analysis is performed using nonlinear regression for a sigmoidal dose-response with a variable slope.

[2] = biological target: T1, DNA-dependent protein kinase (DNA-PK) (Homo sapiens, UniProt P78527); assay: kinobeads assay, DNA-PK; type: binding; settings: kinobeads assay
T1 construct: endogenous in cells; host or cells: Jurkat, clone E6-1 (ATCC TIB-152) cell lysate
In short: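 Competitive binding in Jurkat cell lysate (5 mg/ml total protein): test compounds at various concentrations competed with beads bearing immobilized phenylmorpholin-chromen ligand. Bead-bound kinases were eluted and quantified by antibody dot blot with infrared detection; IC50 values came from dose-response curves.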

[3] = Table 4, read-out: Inhibition values (IC50) DNA-PK
[4] = Table 6, read-out: Inhibition values (IC50) DNAPK

T1 sequence (P78527 whole entry): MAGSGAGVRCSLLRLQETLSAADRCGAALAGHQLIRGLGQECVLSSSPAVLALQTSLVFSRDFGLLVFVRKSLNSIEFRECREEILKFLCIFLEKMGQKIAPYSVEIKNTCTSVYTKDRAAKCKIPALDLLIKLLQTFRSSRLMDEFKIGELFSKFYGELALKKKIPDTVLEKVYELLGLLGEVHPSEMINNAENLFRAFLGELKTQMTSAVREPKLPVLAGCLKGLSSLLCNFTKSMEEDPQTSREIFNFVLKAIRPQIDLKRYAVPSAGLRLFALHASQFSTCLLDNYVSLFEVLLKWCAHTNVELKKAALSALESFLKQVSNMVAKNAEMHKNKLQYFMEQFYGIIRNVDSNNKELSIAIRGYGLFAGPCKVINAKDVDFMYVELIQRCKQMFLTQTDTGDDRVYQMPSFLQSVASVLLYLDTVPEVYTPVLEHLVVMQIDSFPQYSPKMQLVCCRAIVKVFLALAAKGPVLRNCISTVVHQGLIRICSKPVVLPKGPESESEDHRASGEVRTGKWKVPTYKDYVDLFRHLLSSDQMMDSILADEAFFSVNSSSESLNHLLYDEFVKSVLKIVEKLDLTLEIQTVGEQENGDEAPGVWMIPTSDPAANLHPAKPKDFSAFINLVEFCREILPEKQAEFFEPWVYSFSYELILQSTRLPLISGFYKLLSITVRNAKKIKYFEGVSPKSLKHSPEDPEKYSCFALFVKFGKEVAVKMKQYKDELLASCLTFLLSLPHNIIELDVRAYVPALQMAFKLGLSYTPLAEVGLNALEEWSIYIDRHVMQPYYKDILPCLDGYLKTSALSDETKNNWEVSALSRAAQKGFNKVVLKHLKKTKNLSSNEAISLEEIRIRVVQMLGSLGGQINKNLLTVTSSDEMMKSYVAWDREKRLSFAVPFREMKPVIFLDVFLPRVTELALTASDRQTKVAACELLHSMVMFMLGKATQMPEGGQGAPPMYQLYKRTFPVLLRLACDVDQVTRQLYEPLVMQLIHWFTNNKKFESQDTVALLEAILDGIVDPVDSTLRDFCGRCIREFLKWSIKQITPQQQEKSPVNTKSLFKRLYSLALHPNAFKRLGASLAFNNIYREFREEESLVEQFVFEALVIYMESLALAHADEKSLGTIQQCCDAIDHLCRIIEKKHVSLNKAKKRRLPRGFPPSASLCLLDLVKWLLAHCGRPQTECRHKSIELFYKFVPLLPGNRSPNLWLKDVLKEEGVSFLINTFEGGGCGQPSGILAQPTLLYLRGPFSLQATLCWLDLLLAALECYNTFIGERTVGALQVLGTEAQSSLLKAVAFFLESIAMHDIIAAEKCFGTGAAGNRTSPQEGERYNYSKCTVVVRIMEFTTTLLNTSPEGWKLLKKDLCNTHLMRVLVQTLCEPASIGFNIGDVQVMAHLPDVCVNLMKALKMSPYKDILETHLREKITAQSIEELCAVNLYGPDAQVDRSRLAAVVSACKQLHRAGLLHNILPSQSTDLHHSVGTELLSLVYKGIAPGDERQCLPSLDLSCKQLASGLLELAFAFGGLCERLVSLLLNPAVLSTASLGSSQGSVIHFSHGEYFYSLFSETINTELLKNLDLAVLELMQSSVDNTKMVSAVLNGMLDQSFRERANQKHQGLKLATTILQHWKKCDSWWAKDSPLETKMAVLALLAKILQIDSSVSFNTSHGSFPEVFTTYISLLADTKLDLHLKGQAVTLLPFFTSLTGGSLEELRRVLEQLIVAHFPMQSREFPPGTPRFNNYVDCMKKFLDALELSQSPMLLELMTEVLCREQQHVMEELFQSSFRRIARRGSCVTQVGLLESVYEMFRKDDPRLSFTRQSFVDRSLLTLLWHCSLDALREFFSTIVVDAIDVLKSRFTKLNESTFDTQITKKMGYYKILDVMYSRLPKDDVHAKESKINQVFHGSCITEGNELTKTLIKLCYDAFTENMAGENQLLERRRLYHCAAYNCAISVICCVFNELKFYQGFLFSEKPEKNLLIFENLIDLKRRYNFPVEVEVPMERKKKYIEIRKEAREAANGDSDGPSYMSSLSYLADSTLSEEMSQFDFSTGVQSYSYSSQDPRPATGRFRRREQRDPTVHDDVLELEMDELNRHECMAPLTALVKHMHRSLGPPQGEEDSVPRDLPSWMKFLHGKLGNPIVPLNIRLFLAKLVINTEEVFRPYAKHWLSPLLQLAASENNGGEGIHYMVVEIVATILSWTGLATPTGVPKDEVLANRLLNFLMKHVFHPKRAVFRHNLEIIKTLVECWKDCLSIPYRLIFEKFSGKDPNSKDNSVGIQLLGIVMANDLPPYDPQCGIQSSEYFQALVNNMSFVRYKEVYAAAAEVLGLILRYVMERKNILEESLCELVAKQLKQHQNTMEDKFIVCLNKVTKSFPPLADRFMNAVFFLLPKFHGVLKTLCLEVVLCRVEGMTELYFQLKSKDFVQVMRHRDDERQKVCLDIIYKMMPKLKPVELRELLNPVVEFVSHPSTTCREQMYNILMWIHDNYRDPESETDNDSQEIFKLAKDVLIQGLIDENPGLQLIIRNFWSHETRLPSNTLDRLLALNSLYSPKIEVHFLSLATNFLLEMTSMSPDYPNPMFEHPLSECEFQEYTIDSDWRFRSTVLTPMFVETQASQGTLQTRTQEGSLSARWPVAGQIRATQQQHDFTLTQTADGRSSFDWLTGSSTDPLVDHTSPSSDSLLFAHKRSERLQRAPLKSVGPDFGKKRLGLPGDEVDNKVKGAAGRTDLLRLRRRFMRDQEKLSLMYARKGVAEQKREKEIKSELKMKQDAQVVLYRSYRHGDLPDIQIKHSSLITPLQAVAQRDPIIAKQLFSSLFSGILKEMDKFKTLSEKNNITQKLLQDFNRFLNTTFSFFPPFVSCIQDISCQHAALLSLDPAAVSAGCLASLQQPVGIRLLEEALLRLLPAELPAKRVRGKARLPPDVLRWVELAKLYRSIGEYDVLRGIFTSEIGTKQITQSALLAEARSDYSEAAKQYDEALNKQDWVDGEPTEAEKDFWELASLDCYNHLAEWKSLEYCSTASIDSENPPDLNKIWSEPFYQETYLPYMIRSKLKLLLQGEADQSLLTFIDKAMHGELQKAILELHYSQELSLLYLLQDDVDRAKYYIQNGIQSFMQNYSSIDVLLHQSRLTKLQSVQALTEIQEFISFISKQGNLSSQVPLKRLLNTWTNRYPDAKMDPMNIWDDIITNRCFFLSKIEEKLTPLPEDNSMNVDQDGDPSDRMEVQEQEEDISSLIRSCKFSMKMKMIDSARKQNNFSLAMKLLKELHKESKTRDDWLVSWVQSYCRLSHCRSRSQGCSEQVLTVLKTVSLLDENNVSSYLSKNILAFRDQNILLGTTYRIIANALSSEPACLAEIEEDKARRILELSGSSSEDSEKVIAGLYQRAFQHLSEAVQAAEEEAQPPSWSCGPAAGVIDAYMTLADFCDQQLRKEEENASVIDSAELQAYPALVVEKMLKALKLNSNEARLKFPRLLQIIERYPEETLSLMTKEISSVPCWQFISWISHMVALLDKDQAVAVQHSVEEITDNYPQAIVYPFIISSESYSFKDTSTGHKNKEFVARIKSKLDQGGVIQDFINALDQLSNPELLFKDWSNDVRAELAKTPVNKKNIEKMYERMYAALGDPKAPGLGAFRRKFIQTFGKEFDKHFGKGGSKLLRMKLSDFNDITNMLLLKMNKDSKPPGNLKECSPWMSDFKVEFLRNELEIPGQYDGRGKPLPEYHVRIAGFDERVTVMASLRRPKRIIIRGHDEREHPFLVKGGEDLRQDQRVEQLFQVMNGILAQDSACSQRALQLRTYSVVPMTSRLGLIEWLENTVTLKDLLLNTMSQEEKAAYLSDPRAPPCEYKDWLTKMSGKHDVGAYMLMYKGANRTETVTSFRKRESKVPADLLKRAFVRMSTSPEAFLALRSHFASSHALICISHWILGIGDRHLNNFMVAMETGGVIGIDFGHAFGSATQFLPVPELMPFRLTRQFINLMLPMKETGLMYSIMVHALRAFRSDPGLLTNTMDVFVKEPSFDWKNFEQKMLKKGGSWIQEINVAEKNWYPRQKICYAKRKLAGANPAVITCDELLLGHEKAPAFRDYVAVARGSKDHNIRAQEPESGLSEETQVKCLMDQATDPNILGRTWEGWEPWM

SMILES	IC50 [1]	IC50 [2, 3]	IC50 [2, 4]
CCOC(=O)N1Cc2nc(-c3ccc(NC(=O)NC4CC4)cc3)nc(N3CCOC[C@@H]3C)c2C1 [Example 34, (S)-ethyl 2-(4-(3-cyclopropylureido)phenyl)-4-(3-methylmorpholino)-5H-pyrrolo[3,4-d]pyrimidine-6(7H)-carboxylate]	0.049 µM	> 10 µM	> 10 µM
CCNC(=O)Nc1ccc(-c2nc3c(c(N4CCOC[C@@H]4C)n2)CCN(C)C3)cc1 [Example 35, (S)-1-ethyl-3-(4-(7-methyl-4-(3-methylmorpholino)-5,6,7,8-tetrahydropyrido[3,4-d]pyrimidin-2-yl)phenyl)urea]	0.037 µM	> 10 µM	> 10 µM
CCN1Cc2nc(-c3ccc(NC(=O)NC4CC4)cc3)nc(N3CCOC[C@@H]3C)c2C1 [Example 36, (S)-1-cyclopropyl-3-(4-(6-ethyl-4-(3-methylmorpholino)-6,7-dihydro-5H-pyrrolo[3,4-d]pyrimidin-2-yl)phenyl)urea]	0.113 µM	> 10 µM	> 10 µM
CCNC(=O)Nc1ccc(-c2nc3c(c(N4CCOC[C@@H]4C)n2)CCN(CC2CC2)C3)cc1 [Example 37, (S)-1-(4-(7-(cyclopropylmethyl)-4-(3-methylmorpholino)-5,6,7,8-tetrahydropyrido[3,4-d]pyrimidin-2-yl)phenyl)-3-ethylurea]	0.086 µM	> 10 µM	> 10 µM
C[C@H]1COCCN1c1nc(-c2ccc(NC(=O)NC3CC3)cc2)nc2c1CN(C)C2 [Example 38, (S)-1-cyclopropyl-3-(4-(6-methyl-4-(3-methylmorpholino)-6,7-dihydro-5H-pyrrolo[3,4-d]pyrimidin-2-yl)phenyl)urea]	0.17 µM	> 10 µM	> 10 µM
CCNC(=O)Nc1ccc(-c2nc3c(c(N4CCOC[C@@H]4C)n2)CN(CC)C3)cc1 [Example 39, (S)-1-ethyl-3-(4-(6-ethyl-4-(3-methylmorpholino)-6,7-dihydro-5H-pyrrolo[3,4-d]pyrimidin-2-yl)phenyl)urea]	0.14 µM	> 10 µM	> 10 µM
C[C@H]1COCCN1c1nc(-c2ccc(NC(=O)NC3CC3)cc2)nc2c1CCN(CC1CC1)C2 [Example 40, (S)-1-cyclopropyl-3-(4-(7-(cyclopropylmethyl)-4-(3-methylmorpholino)-5,6,7,8-tetrahydropyrido[3,4-d]pyrimidin-2-yl)phenyl)urea]	0.07 µM	> 10 µM	> 10 µM
C[C@H]1COCCN1c1nc(-c2ccc(NC(=O)NC3CC3)cc2)nc2c1CCN(CC(C)(C)C)C2 [Example 41, (S)-1-cyclopropyl-3-(4-(4-(3-methylmorpholino)-7-neopentyl-5,6,7,8-tetrahydropyrido[3,4-d]pyrimidin-2-yl)phenyl)urea]	0.12 µM	> 10 µM	> 10 µM
CC(C)CN1CCc2c(nc(-c3ccc(NC(=O)NC4CC4)cc3)nc2N2CCOC[C@@H]2C)C1 [Example 42, (S)-1-cyclopropyl-3-(4-(7-isobutyl-4-(3-methylmorpholino)-5,6,7,8-tetrahydropyrido[3,4-d]pyrimidin-2-yl)phenyl)urea]	0.104 µM	> 10 µM	> 10 µM
CC(C)N1CCc2c(nc(-c3ccc(NC(=O)NC4CC4)cc3)nc2N2CCOC[C@@H]2C)C1 [Example 43, (S)-1-cyclopropyl-3-(4-(7-isopropyl-4-(3-methylmorpholino)-5,6,7,8-tetrahydropyrido[3,4-d]pyrimidin-2-yl)phenyl)urea]	0.071 µM	> 10 µM	> 10 µM
CC(C)C(=O)N1Cc2nc(-c3ccc(NC(=O)NC4CC4)cc3)nc(N3CCOC[C@@H]3C)c2C1 [Example 44, (S)-1-cyclopropyl-3-(4-(6-isobutyryl-4-(3-methylmorpholino)-6,7-dihydro-5H-pyrrolo[3,4-d]pyrimidin-2-yl)phenyl)urea]	0.205 µM	> 10 µM	> 10 µM

Continued, values first:

IC50 [1]	IC50 [2, 3]	IC50 [2, 4]	SMILES
0.063 µM	> 10 µM	> 10 µM	C[C@H]1COCCN1c1nc(-c2ccc(NC(=O)NC3CC3)cc2)nc2c1CN(C(=O)C(C)(C)C)C2 [Example 45, (S)-1-cyclopropyl-3-(4-(4-(3-methylmorpholino)-6-pivaloyl-6,7-dihydro-5H-pyrrolo[3,4-d]pyrimidin-2-yl)phenyl)urea]
0.147 µM	> 10 µM	> 10 µM	CC(C)N1Cc2nc(-c3ccc(NC(=O)NC4CC4)cc3)nc(N3CCOC[C@@H]3C)c2C1 [Example 46, (S)-1-cyclopropyl-3-(4-(6-isopropyl-4-(3-methylmorpholino)-6,7-dihydro-5H-pyrrolo[3,4-d]pyrimidin-2-yl)phenyl)urea]
0.218 µM	> 10 µM	> 10 µM	CNC(=O)Nc1ccc(-c2nc3c(c(N4CCOC[C@@H]4C)n2)CN(CC2CC2)C3)cc1 [Example 47, (S)-1-(4-(6-(cyclopropylmethyl)-4-(3-methylmorpholino)-6,7-dihydro-5H-pyrrolo[3,4-d]pyrimidin-2-yl)phenyl)-3-methylurea]
0.698 µM	> 10 µM	> 10 µM	C[C@H]1COCCN1c1nc(-c2ccc(NC(N)=O)cc2)nc2c1CN(CC1CC1)C2 [Example 48, (S)-1-(4-(6-(cyclopropylmethyl)-4-(3-methylmorpholino)-6,7-dihydro-5H-pyrrolo[3,4-d]pyrimidin-2-yl)phenyl)urea]
0.306 µM	> 10 µM	> 10 µM	CCCNC(=O)Nc1ccc(-c2nc3c(c(N4CCOC[C@@H]4C)n2)CN(CC2CC2)C3)cc1 [Example 49, (S)-1-(4-(6-(cyclopropylmethyl)-4-(3-methylmorpholino)-6,7-dihydro-5H-pyrrolo[3,4-d]pyrimidin-2-yl)phenyl)-3-propylurea]
0.423 µM	> 10 µM	> 10 µM	CC(C)NC(=O)Nc1ccc(-c2nc3c(c(N4CCOC[C@@H]4C)n2)CN(CC2CC2)C3)cc1 [Example 50, (S)-1-(4-(6-(cyclopropylmethyl)-4-(3-methylmorpholino)-6,7-dihydro-5H-pyrrolo[3,4-d]pyrimidin-2-yl)phenyl)-3-isopropylurea]
0.09 µM	> 10 µM	> 10 µM	C[C@H]1COCCN1c1nc(-c2ccc(NC(=O)Nc3ccc(F)cc3)cc2)nc2c1CN(C)C2 [Example 52, (S)-1-(4-fluorophenyl)-3-(4-(6-methyl-4-(3-methylmorpholino)-6,7-dihydro-5H-pyrrolo[3,4-d]pyrimidin-2-yl)phenyl)urea]
0.435 µM	> 10 µM	> 10 µM	C[C@H]1COCCN1c1nc(-c2ccc(NC(=O)NC3CCC3)cc2)nc2c1CN(C)C2 [Example 55, (S)-1-cyclobutyl-3-(4-(6-methyl-4-(3-methylmorpholino)-6,7-dihydro-5H-pyrrolo[3,4-d]pyrimidin-2-yl)phenyl)urea]
0.032 µM	> 10 µM	> 10 µM	CCNC(=O)Nc1ccc(-c2nc3c(c(N4CCOC[C@@H]4C)n2)CCN(C(=O)C2CC2)C3)cc1 [Example 56, (S)-1-(4-(7-(cyclopropanecarbonyl)-4-(3-methylmorpholino)-5,6,7,8-tetrahydropyrido[3,4-d]pyrimidin-2-yl)phenyl)-3-ethylurea]
0.032 µM	> 10 µM	> 10 µM	CCNC(=O)Nc1ccc(-c2nc3c(c(N4CCOC[C@@H]4C)n2)CCN(C(=O)C(C)C)C3)cc1 [Example 57, (S)-1-ethyl-3-(4-(7-isobutyryl-4-(3-methylmorpholino)-5,6,7,8-tetrahydropyrido[3,4-d]pyrimidin-2-yl)phenyl)urea]
